“And” between values parts separate entries of the source, which are not always exact repeats. Equal values may be shown once. Records with an inconclusive call do not appear.

The assay relates to nude mice, HT29 intrarenal xenograft, tumor weight T/C. The assay can be described thus: NCI In Vivo Anticancer Drug Screen. Data for tumor model HT29;CX-1 Human Adenocarcinoma (MER+) (intrarenal inoculation) in NU/NU Swiss (nude) mice. As to conditions: endpoint: mean tumor weight change, higher = larger tumour. Put shortly: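 Readout: treated/vehicle-control ratio of the measured endpoint (tumor size or survival) in transplanted-tumor mice.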

The mark [1] stands for this setting: dose: 450.0 mg/kg/injection, schedule: Q04DX004 (sc), vehicle: saline with Tween-80.
[2] abbreviates: dose: 900.0 mg/kg/injection, schedule: Q04DX004 (sc), vehicle: saline with Tween-80.
[3] abbreviates: dose: 1800.0 mg/kg/injection, schedule: Q04DX004 (sc), vehicle: saline with Tween-80.
[4] abbreviates: dose: 150.0 mg/kg/injection, schedule: Q04DX004 (sc), vehicle: saline with Tween-80.
[5] abbreviates: dose: 300.0 mg/kg/injection, schedule: Q04DX004 (sc), vehicle: saline with Tween-80.
Setting [6] is: dose: 600.0 mg/kg/injection, schedule: Q04DX004 (sc), vehicle: saline with Tween-80.
The mark [7] stands for this setting: dose: 50.0 mg/kg/injection, schedule: Q04DX004 (sc), vehicle: Klucel (hydroxypropylcellulose) (HPC).
Where [8] appears, read: dose: 100.0 mg/kg/injection, schedule: Q04DX004 (sc), vehicle: Klucel (hydroxypropylcellulose) (HPC).
Where [9] appears, read: dose: 200.0 mg/kg/injection, schedule: Q04DX004 (sc), vehicle: Klucel (hydroxypropylcellulose) (HPC).

Turning to `N=c1ccn2c(n1)OC1C(O)C(CO)OC12` (configuration not stated), the T/C reads like this: (dose: 300.0 mg/kg/injection, schedule: Q04DX004 (sc), vehicle: saline) 50 % of control; (dose: 300.0 mg/kg/injection, schedule: Q04DX004 (sc), vehicle: suspension in saline) 105 % of control; (dose: 400.0 mg/kg/injection, schedule: Q04DX004 (sc), vehicle: saline) 98 % of control; (dose: 600.0 mg/kg/injection, schedule: Q04DX004 (sc), vehicle: saline) 60 % of control; (dose: 600.0 mg/kg/injection, schedule: Q04DX004 (sc), vehicle: suspension in saline) 66 % of control; (dose: 800.0 mg/kg/injection, schedule: Q04DX004 (sc), vehicle: saline) 31 % of control. The T/C (dose: 1200.0 mg/kg/injection, schedule: Q04DX004 (sc), vehicle: saline) was 42 % of control; the T/C (dose: 1200.0 mg/kg/injection, schedule: Q04DX004 (sc), vehicle: suspension in saline) was 38 % of control; the T/C (dose: 1600.0 mg/kg/injection, schedule: Q04DX004 (sc), vehicle: saline) is 36 % of control; the T/C (dose: 2400.0 mg/kg/injection, schedule: Q04DX004 (sc), vehicle: suspension in saline) is 42 % of control.

Consider `S=c1[nH]cc2cnccn12`, for which the T/C reads like this: under setting [1], 97 % of control; under setting [2], 107 % of control; under setting [3], 117 % of control.

For the compound `CS(C)=O`, the T/C was 36 % of control (dose: 750.0 mg/kg/injection, schedule: Q01DX010 (sc), vehicle: saline); 31 % of control (dose: 1500.0 mg/kg/injection, schedule: Q01DX010 (sc), vehicle: saline); 89 % of control (dose: 3000.0 mg/kg/injection, schedule: Q01DX010 (sc), vehicle: saline); 75 % of control (dose: 6000.0 mg/kg/injection, schedule: Q01DX010 (sc), vehicle: saline).

In the case of `CCCCOC(=O)/C=C(\Br)C(=O)OCCCC`, the T/C reads like this: (dose: 250.0 mg/kg/injection, schedule: Q04DX004 (sc), vehicle: saline with Tween-80) 69 % of control; (dose: 500.0 mg/kg/injection, schedule: Q04DX004 (sc), vehicle: saline with Tween-80) 43 % of control.

With `Cn1c2nc(=O)n(-c3ccccc3)c(=O)c-2nc2c1CCCC2`, the T/C is 106 % of control under setting [4] and 32 % of control under setting [5].

Regarding `CN=C(N)N/N=C(\c1ccccc1)c1ccc(Br)cc1`, under “dose: 50.0 mg/kg/injection, schedule: Q04DX004 (sc), vehicle: saline with Tween-80”, the T/C is 90 % of control and 92 % of control and 104 % of control.

Regarding `O=c1[nH]c(=O)n([C@H]2CCCO2)cc1F`, the T/C reads like this: (dose: 100.0 mg/kg/injection, schedule: Q01DX010 (sc), vehicle: Klucel (hydroxypropylcellulose) (HPC)) 55 % of control; (dose: 200.0 mg/kg/injection, schedule: Q01DX010 (sc), vehicle: Klucel (hydroxypropylcellulose) (HPC)) 103 % of control.

As for `CC1(C)OC2C(COC(=O)c3ccc([N+](=O)[O-])cc3)OC(NC(=O)N(CCCl)N=O)C2O1` (configuration not stated), the T/C by setting is: under setting [4], 38 % of control; under setting [5], 26 % of control; under setting [6], 70 % of control.

`CC(=O)C1=C(O)C2(O)C(=O)c3c(c(C)c4ccc(C)c(O)c4c3O)CC2C(N)C1=O` (configuration not stated): the T/C is, setting by setting: (dose: 25.0 mg/kg/injection, schedule: Q04DX004 (sc), vehicle: saline) 153 % of control; (dose: 50.0 mg/kg/injection, schedule: Q04DX004 (sc), vehicle: saline) 173 % of control; (dose: 100.0 mg/kg/injection, schedule: Q04DX004 (sc), vehicle: saline) 102 % of control; (dose: 200.0 mg/kg/injection, schedule: Q04DX004 (sc), vehicle: saline) 109 % of control.

On to `CCCCCc1cc(/C=C2/N=C(c3ccc[nH]3)C=C2OC)[nH]c1C`, for which the T/C by setting is: (dose: 4.0 mg/kg/injection, schedule: Q04DX004 (sc), vehicle: saline with Tween-80) 81 % of control; (dose: 8.0 mg/kg/injection, schedule: Q04DX004 (sc), vehicle: saline with Tween-80) 68 % of control; (dose: 16.0 mg/kg/injection, schedule: Q04DX004 (sc), vehicle: saline with Tween-80) 55 % of control and 72 % of control; (dose: 32.0 mg/kg/injection, schedule: Q04DX004 (sc), vehicle: saline with Tween-80) 76 % of control.

`O=Cc1ccc(O)c(O)c1`: the T/C under setting [5] was 86 % of control; the T/C under setting [6] is 58 % of control; the T/C (dose: 1200.0 mg/kg/injection, schedule: Q04DX004 (sc), vehicle: saline with Tween-80) was 100 % of control.

Consider `Nc1cc(Cl)c2[nH]cnc2n1`, for which the T/C runs as follows: (dose: 100.0 mg/kg/injection, schedule: Q04DX004 (sc), vehicle: water) 160 % of control; (dose: 400.0 mg/kg/injection, schedule: Q04DX004 (sc), vehicle: water) 96 % of control.

Turning to `NC(=S)N/N=C\c1ncccc1OCc1cccc(N)c1`, the T/C is 220 % of control (dose: 225.0 mg/kg/injection, schedule: Q04DX004 (sc), vehicle: saline with Tween-80); 102 % of control under setting [1]; 121 % of control under setting [2]; 99 % of control under setting [3].

Take `O=C1NC(=O)NC(C(=O)O)N1`: the T/C was 101 % of control under setting [7]; 67 % of control under setting [8]; 114 % of control under setting [9]; 108 % of control (dose: 300.0 mg/kg/injection, schedule: Q04DX004 (sc), vehicle: Klucel (hydroxypropylcellulose) (HPC)); 91 % of control (dose: 400.0 mg/kg/injection, schedule: Q04DX004 (sc), vehicle: Klucel (hydroxypropylcellulose) (HPC)); 95 % of control (dose: 600.0 mg/kg/injection, schedule: Q04DX004 (sc), vehicle: Klucel (hydroxypropylcellulose) (HPC)). Moreover, the T/C (dose: 1200.0 mg/kg/injection, schedule: Q04DX004 (sc), vehicle: Klucel (hydroxypropylcellulose) (HPC)) is 58 % of control.

`Cc1c(N)nc(C(CC(N)=O)NCC(N)C(N)=O)nc1C(=O)NC(C(=O)NC(C)C(O)C(C)C(=O)NC(C(=O)NCCc1nc(-c2nc(C(=O)NCCCNCCCc3ccccn3)cs2)cs1)C(C)O)C(OC1OC(CO)C(O)C(O)C1OC1OC(CO)C(O)C(OC(N)=O)C1O)c1cnc[nH]1` (configuration not stated): the T/C (dose: 9.0 mg/kg/injection, schedule: Q04DX004 (sc), vehicle: water) is 164 % of control; the T/C (dose: 18.0 mg/kg/injection, schedule: Q04DX004 (sc), vehicle: water) is 120 % of control; the T/C (dose: 36.0 mg/kg/injection, schedule: Q04DX004 (sc), vehicle: water) was 90 % of control.

On to `O=C(O)/C=C/C(=O)Nc1ccc(Cl)c(Cl)c1`, for which the T/C was 151 % of control under setting [7], 102 % of control under setting [8] and 91 % of control under setting [9].

As for `COc1cccc2c1C(=O)c1c(O)c3c(c(O)c1C2=O)C[C@@](O)(/C(C)=N/NC(=O)c1cccc([N+](=O)[O-])c1)C[C@@H]3OC1CC(N)C(O)C(C)O1` (some centres not stated), the T/C (dose: 8.0 mg/kg/injection, schedule: Q01DX010 (sc), vehicle: water) was 16 % of control; the T/C (dose: 10.0 mg/kg/injection, schedule: Q04DX004 (sc), vehicle: water) is 48 % of control; the T/C (dose: 16.0 mg/kg/injection, schedule: Q01DX010 (sc), vehicle: water) was 61 % of control; the T/C (dose: 20.0 mg/kg/injection, schedule: Q04DX004 (sc), vehicle: water) was 70 % of control; the T/C (dose: 40.0 mg/kg/injection, schedule: Q04DX004 (sc), vehicle: water) was 47 % of control; the T/C (dose: 80.0 mg/kg/injection, schedule: Q04DX004 (sc), vehicle: water) was 106 % of control.

As to `CCOC(=O)C1=C(C#N)C2(CCC(OCc3ccccc3)CC2)C(=O)O1` (configuration not stated), the T/C (dose: 100.0 mg/kg/injection, schedule: Q04DX004 (sc), vehicle: suspension in saline) was 91 % of control and the T/C (dose: 800.0 mg/kg/injection, schedule: Q04DX004 (sc), vehicle: suspension in saline) was 110 % of control.

Take `CC[C@@]1(O)C[C@H](OC2CC(N(C)C)C(OC3CC(O)C(OC4CCC(=O)C(C)O4)C(C)O3)C(C)O2)c2c(cc3c(c2O)C(=O)c2c(O)ccc(O)c2C3=O)[C@H]1C(=O)OC` (some centres not stated): the T/C (dose: 3.0 mg/kg/injection, schedule: Q04DX004 (sc), vehicle: water) was 12 % of control and the T/C (dose: 6.0 mg/kg/injection, schedule: Q04DX004 (sc), vehicle: water) is -24 % of control.

(Values after PubChem BioAssay AID206 (DTP/NCI, 2004).)
